From US7067273B2, “Peptide substrates of a proteolytic ADAM33 polypeptide and assays using the same” (Schering Corporation, priority 2002, dated 2006)

Legend:
[1] = target: T1, proteolytic ADAM33 polypeptide (Homo sapiens, UniProt Q9BZ11); assay: FRET assay for inhibition of the proteolytic activity of a proteolytic ADAM33 polypeptide; type: biochemical
T1 construct: The presence of imidazole facilitated the separation of the prodomain from the catalytic domain; made in house; host or cells: Drosophila melanogaster S2 cells (pMT/Bip/V5-His-C, secreted)
T1 sequence (Q9BZ11 204-409): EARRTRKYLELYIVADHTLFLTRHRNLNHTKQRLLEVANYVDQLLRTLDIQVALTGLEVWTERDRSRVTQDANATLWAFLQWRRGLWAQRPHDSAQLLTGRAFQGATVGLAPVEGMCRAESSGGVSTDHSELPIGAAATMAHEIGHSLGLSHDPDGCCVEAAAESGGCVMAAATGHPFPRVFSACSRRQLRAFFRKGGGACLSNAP
Method: A FRET assay may also be used to determine the cleavage of a compound by a proteolytic ADAM33 polypeptide. At room temperature, in a total reaction volume of 100 μL per well in a 96 well plate, add 50 μL of 2× Assay Buffer (40 mM HEPES, pH 7.5, 1.0 M NaCl; 1× Assay Buffer being 20 mM HEPES, pH 7.5, 0.5 M NaCl), followed by 25 μL of 100 μM substrate, e.g., SEQ ID NO: 14 (K(Dabcyl)YEVAHQKLAE(Edans)K-OH), and lastly 25 μL of 40 nM a proteolytic ADAM33 polypeptide in Enzyme Dilution Buffer 40 mM HEPES, pH 7.5. The reaction starts after the enzyme is added and is assayed at room temperature for 15–20 minutes by reading the relative fluorescence unit.
For High throughput screening, the FRET assay is performed similarly to that stated above, but with Assay Buffer that is also composed of 0.2 mg/ml BSA (1× Assay Buffer being 20 mM HEPES, pH 7.5, 0.5 M NaCl, 0.2 mg/ml BSA). In addition, the substrate used has a fluorescent donor and an acceptor at either end of the peptide, e.g., SEQ ID NO: 18 ((Cy5Q)WEVAH*QKLAC(Cy3B)K). Lastly, the reaction is incubated at room temperature for 3 hours and then stopped by adding 10 μL EDTA (11 mM). To measure the proteolytic activity of the proteolytic ADAM33 polypeptide on the substrate, the endpoint (relative fluorescence unit) is read using the appropriate excitation and emission wavelengths (e.g., for Cy5Q and Cy3B, 540 nm and 580 nm, respectively). […]

[2] = target: T1, proteolytic ADAM33 polypeptide; assay: Proteolytic activity assay: cleavage of peptide substrates by a proteolytic ADAM33 polypeptide (HPLC); type: biochemical; conditions: fold versus SEQ ID NO: 8
Source text: The proteolytic activity assay consists of a substrate, preferably at a micromolar to submicromolar concentration, and a proteolytic ADAM33 polypeptide, preferably at a submicromolar concentration, in a benign buffered solution at pH 7–9, more preferably around pH 7.5–8.0. This assay may be set-up to monitor proteolytic activity of a proteolytic ADAM33 polypeptide continuously over a time span of minutes to hours in a 96-well or 384-well format. Alternatively, this assay may be set up to allow an elapse of time span of minutes to hours before the proteolytic activity is quenched and analyzed following acidification to under pH 4 or addition of an excess amount of zinc chelators (e.g., EDTA).
For example, an ADAM33 substrate derived from amyloid percursor protein to assay the proteolytic activity of a proteolytic ADAM33 polypeptide. The cleavage site in the above-mentioned substrate is indicated by a hyphen (i.e., the cleavage site is the scissile bond being between the second histidine and the adjacent glutamine). One particular set of assay conditions contains 25 nM of the proteolytic ADAM33 polypeptide and 25 μM substrate. […] The rate of reaction is measured over a defined time period (e.g., for 1 hour at room temperature) and then stopped. Product formation can be quantified at 214 nm by HPLC using a reverse phase column to separate the substrate from the products. […]

Row | Compound | inhibition of the proteolytic activity of a proteolytic ADAM33 polypeptide (in words) [1] | cleavage rate relative to the 10-mer truncated form of APP28 (SEQ ID NO: 8) [2]
1 | CNC(=O)[C@@H](NC(=O)[C@H](CC(C)C)[C@H](O)C(=O)NO)C(C)(C)C [marimastat] | identified as an inhibitor | 
2 | Ac-Tyr-Glu-Val-Ala-His-Gln-Lys-Leu-Val-Phe-NH2 (Ac-YEVAHQKLVF-NH2) [SEQ ID NO: 13, peptide substrate, code P5P5′, Ac-YEVAH*QKLVF-NH2] |  | seventeen times greater
